PubChem BioAssay (NCI)
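96-well plates; 48 h exposure; 5 concentrations. Endpoints by linear interpolation between flanking doses. Not reached: highest tested concentration assigned. Abbreviation: GI50, concentration required for 50% inhibition of growth. TGI marks complete inhibition of growth.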

What was measured:
Experiment in all cases: NCI-60 cell line screen, 48 h
SK-OV-3 ovarian = system: SK-OV-3 ovarian
M14 melanoma = system: M14 melanoma
OVCAR-3 ovarian = system: OVCAR-3 ovarian
786-0 renal = system: 786-0 renal
MCF7 breast = system: MCF7 breast
CCRF-CEM leukemia = system: CCRF-CEM leukemia
HCT-116 colon = system: HCT-116 colon
DU-145 prostate = system: DU-145 prostate
UACC-257 melanoma = system: UACC-257 melanoma
MALME-3M melanoma = system: MALME-3M melanoma
SF-268 CNS = system: SF-268 CNS
TK-10 renal = system: TK-10 renal
CAKI-1 renal = system: CAKI-1 renal
HT29 colon = system: HT29 colon
SK-MEL-2 melanoma = system: SK-MEL-2 melanoma
SF-539 CNS = system: SF-539 CNS
HCC-2998 colon = system: HCC-2998 colon
MOLT-4 leukemia = system: MOLT-4 leukemia
SN12C renal = system: SN12C renal
UO-31 renal = system: UO-31 renal
MDA-MB-435 = system: MDA-MB-435
ACHN renal = system: ACHN renal
HOP-62 NSCLC = system: HOP-62 NSCLC
HOP-92 NSCLC = system: HOP-92 NSCLC
SR leukemia = system: SR leukemia
HCT-15 colon = system: HCT-15 colon
KM12 colon = system: KM12 colon
LOX IMVI melanoma = system: LOX IMVI melanoma
SNB-75 CNS = system: SNB-75 CNS
OVCAR-4 ovarian = system: OVCAR-4 ovarian
U251 CNS = system: U251 CNS
SK-MEL-28 melanoma = system: SK-MEL-28 melanoma
BT-549 breast = system: BT-549 breast
NCI-H226 lung = system: NCI-H226 lung
PC-3 prostate = system: PC-3 prostate
MDA-MB-231 breast = system: MDA-MB-231 breast
NCI/ADR-RES ovarian = system: NCI/ADR-RES ovarian
NCI-H460 lung = system: NCI-H460 lung
SK-MEL-5 melanoma = system: SK-MEL-5 melanoma
UACC-62 melanoma = system: UACC-62 melanoma
K-562 leukemia = system: K-562 leukemia
OVCAR-5 ovarian = system: OVCAR-5 ovarian
OVCAR-8 ovarian = system: OVCAR-8 ovarian
SW-620 colon = system: SW-620 colon
NCI-H522 lung = system: NCI-H522 lung
HS 578T breast = system: HS 578T breast
SNB-19 CNS = system: SNB-19 CNS
COLO 205 colon = system: COLO 205 colon
A498 renal = system: A498 renal
A549 NSCLC = system: A549 NSCLC
RPMI-8226 leukemia = system: RPMI-8226 leukemia
T-47D breast = system: T-47D breast
RXF 393 renal = system: RXF 393 renal
EKVX NSCLC = system: EKVX NSCLC
NCI-H23 lung = system: NCI-H23 lung
IGROV1 ovarian = system: IGROV1 ovarian
SF-295 CNS = system: SF-295 CNS

Question: `O=C(Nc1ccc(Cl)cc1)c1cc(-c2ccc(F)cc2)c2sc(=O)[nH]c2n1` was tested. Which GI50 (SK-OV-3 ovarian) did it give?
Answer: 1570 nM

Question: And the TGI (SK-OV-3 ovarian)?
Answer: 5.41 µM

Question: What about the GI50 (M14 melanoma) of the same compound?
Answer: 1880 nM

Question: And the TGI (M14 melanoma)?
Answer: 5.13 µM

Question: What about the GI50 (OVCAR-3 ovarian) of the same compound?
Answer: 944 nM

Question: What about the TGI (OVCAR-3 ovarian) of the same compound?
Answer: 11.4 µM

Question: And the GI50 (786-0 renal)?
Answer: 1350 nM

Question: And the TGI (786-0 renal)?
Answer: 2850 nM

Question: What about the GI50 (MCF7 breast) of the same compound?
Answer: 1310 nM

Question: And the TGI (MCF7 breast)?
Answer: 11.3 µM

Question: And the GI50 (CCRF-CEM leukemia)?
Answer: 657 nM

Question: What about the TGI (CCRF-CEM leukemia) of the same compound?
Answer: 9.9 µM

Question: What about the GI50 (HCT-116 colon) of the same compound?
Answer: 1430 nM

Question: What about the TGI (HCT-116 colon) of the same compound?
Answer: 2960 nM

Question: What about the GI50 (DU-145 prostate) of the same compound?
Answer: 3.7 µM

Question: What about the TGI (DU-145 prostate) of the same compound?
Answer: 28.9 µM

Question: What about the GI50 (UACC-257 melanoma) of the same compound?
Answer: 1110 nM

Question: What about the TGI (UACC-257 melanoma) of the same compound?
Answer: 5.07 µM

Question: And the GI50 (MALME-3M melanoma)?
Answer: 1700 nM

Question: And the TGI (MALME-3M melanoma)?
Answer: 6.8 µM

Question: What about the GI50 (SF-268 CNS) of the same compound?
Answer: 2590 nM

Question: And the TGI (SF-268 CNS)?
Answer: 17.2 µM

Question: And the GI50 (TK-10 renal)?
Answer: 1880 nM

Question: And the TGI (TK-10 renal)?
Answer: 4.94 µM

Question: And the GI50 (CAKI-1 renal)?
Answer: 2150 nM

Question: And the TGI (CAKI-1 renal)?
Answer: 4.99 µM

Question: And the GI50 (HT29 colon)?
Answer: 3.02 µM

Question: And the TGI (HT29 colon)?
Answer: 11.4 µM

Question: And the GI50 (SK-MEL-2 melanoma)?
Answer: 1590 nM

Question: What about the TGI (SK-MEL-2 melanoma) of the same compound?
Answer: 3.93 µM

Question: What about the GI50 (SF-539 CNS) of the same compound?
Answer: 2070 nM

Question: What about the TGI (SF-539 CNS) of the same compound?
Answer: 5.71 µM

Question: And the GI50 (HCC-2998 colon)?
Answer: 2250 nM

Question: And the TGI (HCC-2998 colon)?
Answer: 10.9 µM

Question: And the GI50 (MOLT-4 leukemia)?
Answer: 721 nM

Question: And the TGI (MOLT-4 leukemia)?
Answer: 4.02 µM

Question: What about the GI50 (SN12C renal) of the same compound?
Answer: 1990 nM

Question: What about the TGI (SN12C renal) of the same compound?
Answer: 7.93 µM

Question: And the GI50 (UO-31 renal)?
Answer: 1610 nM

Question: What about the TGI (UO-31 renal) of the same compound?
Answer: 3.89 µM

Question: And the GI50 (MDA-MB-435)?
Answer: 3.01 µM

Question: And the TGI (MDA-MB-435)?
Answer: 17.4 µM

Question: And the GI50 (ACHN renal)?
Answer: 1690 nM

Question: What about the TGI (ACHN renal) of the same compound?
Answer: 4.02 µM

Question: What about the GI50 (HOP-62 NSCLC) of the same compound?
Answer: 2040 nM

Question: What about the TGI (HOP-62 NSCLC) of the same compound?
Answer: 5.69 µM

Question: And the GI50 (HOP-92 NSCLC)?
Answer: 204 nM

Question: What about the TGI (HOP-92 NSCLC) of the same compound?
Answer: 940 nM

Question: What about the GI50 (SR leukemia) of the same compound?
Answer: 672 nM

Question: And the TGI (SR leukemia)?
Answer: 10.5 µM

Question: And the GI50 (HCT-15 colon)?
Answer: 1730 nM

Question: What about the TGI (HCT-15 colon) of the same compound?
Answer: 10.1 µM

Question: What about the GI50 (KM12 colon) of the same compound?
Answer: 1810 nM

Question: And the TGI (KM12 colon)?
Answer: 6.04 µM

Question: What about the GI50 (LOX IMVI melanoma) of the same compound?
Answer: 1680 nM

Question: What about the TGI (LOX IMVI melanoma) of the same compound?
Answer: 4.43 µM

Question: And the GI50 (SNB-75 CNS)?
Answer: 2020 nM

Question: And the TGI (SNB-75 CNS)?
Answer: 5.33 µM

Question: And the GI50 (OVCAR-4 ovarian)?
Answer: 1990 nM

Question: What about the TGI (OVCAR-4 ovarian) of the same compound?
Answer: 9.12 µM

Question: What about the GI50 (U251 CNS) of the same compound?
Answer: 1500 nM

Question: And the TGI (U251 CNS)?
Answer: 4.71 µM

Question: And the GI50 (SK-MEL-28 melanoma)?
Answer: 1390 nM

Question: And the TGI (SK-MEL-28 melanoma)?
Answer: 10.1 µM

Question: And the GI50 (BT-549 breast)?
Answer: 1730 nM

Question: What about the TGI (BT-549 breast) of the same compound?
Answer: 6.88 µM

Question: And the GI50 (NCI-H226 lung)?
Answer: 1110 nM

Question: And the TGI (NCI-H226 lung)?
Answer: 3.93 µM

Question: What about the GI50 (PC-3 prostate) of the same compound?
Answer: 650 nM

Question: What about the TGI (PC-3 prostate) of the same compound?
Answer: 13.3 µM

Question: And the GI50 (MDA-MB-231 breast)?
Answer: 1770 nM

Question: What about the TGI (MDA-MB-231 breast) of the same compound?
Answer: 4.78 µM

Question: What about the GI50 (NCI/ADR-RES ovarian) of the same compound?
Answer: 2320 nM

Question: What about the TGI (NCI/ADR-RES ovarian) of the same compound?
Answer: 10.9 µM

Question: What about the GI50 (NCI-H460 lung) of the same compound?
Answer: 1730 nM

Question: What about the TGI (NCI-H460 lung) of the same compound?
Answer: 4.29 µM

Question: What about the GI50 (SK-MEL-5 melanoma) of the same compound?
Answer: 493 nM

Question: What about the TGI (SK-MEL-5 melanoma) of the same compound?
Answer: 2130 nM

Question: And the GI50 (UACC-62 melanoma)?
Answer: 366 nM

Question: What about the TGI (UACC-62 melanoma) of the same compound?
Answer: 2320 nM

Question: What about the GI50 (K-562 leukemia) of the same compound?
Answer: 581 nM

Question: And the TGI (K-562 leukemia)?
Answer: 10.9 µM

Question: And the GI50 (OVCAR-5 ovarian)?
Answer: 2340 nM

Question: What about the TGI (OVCAR-5 ovarian) of the same compound?
Answer: 7.9 µM

Question: What about the GI50 (OVCAR-8 ovarian) of the same compound?
Answer: 1720 nM

Question: And the TGI (OVCAR-8 ovarian)?
Answer: 4.93 µM

Question: What about the GI50 (SW-620 colon) of the same compound?
Answer: 3.01 µM

Question: What about the TGI (SW-620 colon) of the same compound?
Answer: 16.2 µM

Question: And the GI50 (NCI-H522 lung)?
Answer: 478 nM

Question: And the TGI (NCI-H522 lung)?
Answer: 5.42 µM

Question: And the GI50 (HS 578T breast)?
Answer: 2130 nM

Question: What about the TGI (HS 578T breast) of the same compound?
Answer: 13.1 µM

Question: And the GI50 (SNB-19 CNS)?
Answer: 2730 nM

Question: And the TGI (SNB-19 CNS)?
Answer: 16.2 µM

Question: What about the GI50 (COLO 205 colon) of the same compound?
Answer: 1760 nM

Question: And the TGI (COLO 205 colon)?
Answer: 3.82 µM

Question: What about the GI50 (A498 renal) of the same compound?
Answer: 465 nM

Question: What about the TGI (A498 renal) of the same compound?
Answer: 3.35 µM

Question: And the GI50 (A549 NSCLC)?
Answer: 2450 nM

Question: What about the TGI (A549 NSCLC) of the same compound?
Answer: 10.1 µM

Question: What about the GI50 (RPMI-8226 leukemia) of the same compound?
Answer: 391 nM

Question: What about the TGI (RPMI-8226 leukemia) of the same compound?
Answer: 2220 nM

Question: What about the GI50 (T-47D breast) of the same compound?
Answer: 739 nM

Question: And the TGI (T-47D breast)?
Answer: 5.25 µM

Question: And the GI50 (RXF 393 renal)?
Answer: 1700 nM

Question: What about the TGI (RXF 393 renal) of the same compound?
Answer: 3.99 µM

Question: And the GI50 (EKVX NSCLC)?
Answer: 1640 nM

Question: And the TGI (EKVX NSCLC)?
Answer: 6.11 µM

Question: And the GI50 (NCI-H23 lung)?
Answer: 1190 nM

Question: And the TGI (NCI-H23 lung)?
Answer: 5.79 µM

Question: What about the GI50 (IGROV1 ovarian) of the same compound?
Answer: 1780 nM

Question: What about the TGI (IGROV1 ovarian) of the same compound?
Answer: 7.06 µM

Question: What about the GI50 (SF-295 CNS) of the same compound?
Answer: 1100 nM

Question: What about the TGI (SF-295 CNS) of the same compound?
Answer: 3.8 µM
